Data set [1] concerns α-Amylase from the pancreas of pigs. The experiment in a line: Amylase test (inhibition of α-amylase, amylase inhibitor units). Format: biochemical. As to conditions: 1 AIU inhibits two amylase units by 50%, pH 6.9, 37° C. How it is done: One amylase inhibitor unit (AIU) is defined as the amount of inhibitor which is capable of inhibiting two amylase units (AU) to the extent of 50% under the test conditions. By international agreement, one amylase unit is the amount of enzyme which cleaves 1 μEq of glucosidic bonds in starch in one minute. The μ equivalents of glucosidic bonds cleaved are determined photometrically, with dinitrosalicylic acid, as μEq of reducing sugars. The data are calculated as μmol of maltose, determined with the aid of a maltose calibration line.
α-Amylase from the pancreas of pigs and the solutions to be tested are preincubated together in 1.0 ml of 20 mM phosphate buffer, pH 6.9, +10 mM NaCl at 37° C. for 10-20 minutes. The enzymatic reaction is started by addition of 1.0 ml of soluble starch (0.25% strength in the buffer described) according to Zulkowski. After exactly 10 minutes, the reaction istopped with 2.0 ml of dinitrosalicylic acid color reagent (from Boehringer Mannheim: Biochemica-Information II), and the mixture is heated in a boiling waterbath for 5 minutes for color development. After cooling, the extinction is measured against the reagent blank at 546 nm. The 50% inhibition is determined graphically by means of a probability plot in comparison with the non-inhibited enzyme reaction using various amounts of inhibitor.

The nature of the next data set: Solubility in water. Format: physicochemical.
The subject of another data set is experimental animals. The experiment in a line: Oral administration of high doses to experimental animals (tolerability). In kind it is in vivo.
The test system of the next data set is blood sugar. The experiment in a line: Blood sugar after oral starch load in fasting male Wistar rats. In kind it is in vivo. As to conditions: simultaneously with 2 g of starch per kg, fasting male Wistar rats 200-250 g. An excerpt: The α-glucosidase inhibitor according to the invention is particularly suitable for ora administration. It can be administered as the pure substance, as a physiologically acceptable salt with acids or in the form of a pharmaceutical formulation, using the customary auxiliaries and excipients. Combined use with other medicaments, such as hypoglycemic or lipid-lowering substances, may also be advantageous. Since high molecular weight saccharides are not, or not noticeably, absorbed as such from the digestive tract, no toxicologically unacceptable side effects are to be expected of the substance according to the invention. […] To test the pharmacological action of the AI-5662, fasting male Wistar rats weighing between 200 and 250 g were given an oral administration of the inhbitor AI-5662 according to the invention simultaneously with 2 g of starch per kg of body weight. […] Besides blood glucose regulation, the […] according to the invention can also be used for inhibiting salivary α-amylase. This enzyme effects digestion of starch in the mouth, and the sugar thus formed promotes caries of the teeth. The compound according to the invention can therefore be used to prevent or reduce the development of caries.

Consider `C[C@H]1O[C@H](O[C@H]2[C@H](O)[C@@H](O)[C@@H](O[C@H]3[C@H](O)[C@@H](O)C(O)O[C@@H]3CO)O[C@@H]2CO)[C@H](O)[C@@H](O)[C@@H]1N[C@H]1C=C(CO)[C@@H](O[C@H]2O[C@H](CO)[C@@H](O[C@H]3O[C@H](C)[C@@H](N[C@H]4C=C(CO)[C@@H](O)[C@H](O)[C@H]4O)[C@H](O)[C@H]3O)[C@H](O)[C@H]2O)[C@H](O)[C@H]1O` (some centres unmarked) [AI-5662], for which the α-amylase-inhibiting action in data set [1] (freeze-dried white amorphous powder of Example 2) is listed as 4×10^4 AIU per mg. Besides, the specific activity in data set [1] (purified product after silica gel chromatography) is 4×10^4 α-amylase inhibitor units per mg. The solubility in water entry in “Solubility in water” is given as “readily soluble in water”. In addition, in the data set on experimental animals, the “signs following oral administration even of high doses” value is listed as “no notworthy signs were detected”. Besides, the “efficacy on blood sugar concentrations” value with blood sugar is listed as “The efficacy of the product was demonstrated”.

The values above are taken from US4618602A, “Amine containing pseudooligosaccharide, pharmaceutical composition and method of use” (Hoechst Aktiengesellschaft, priority 1984, dated 1986).
